According to ChEMBL document CHEMBL4425186, “Discovery and SAR of pyrrolo[2,1-f][1,2,4]triazin-4-amines as potent and selective PI3Kδ inhibitors” (Bioorg Med Chem Lett, 2016):

Columns and labels:
[1] = molecular target: T1, Phosphatidylinositol 4,5-bisphosphate 3-kinase catalytic subunit delta isoform (Homo sapiens, UniProt O00329)
T1 sequence (O00329 whole entry): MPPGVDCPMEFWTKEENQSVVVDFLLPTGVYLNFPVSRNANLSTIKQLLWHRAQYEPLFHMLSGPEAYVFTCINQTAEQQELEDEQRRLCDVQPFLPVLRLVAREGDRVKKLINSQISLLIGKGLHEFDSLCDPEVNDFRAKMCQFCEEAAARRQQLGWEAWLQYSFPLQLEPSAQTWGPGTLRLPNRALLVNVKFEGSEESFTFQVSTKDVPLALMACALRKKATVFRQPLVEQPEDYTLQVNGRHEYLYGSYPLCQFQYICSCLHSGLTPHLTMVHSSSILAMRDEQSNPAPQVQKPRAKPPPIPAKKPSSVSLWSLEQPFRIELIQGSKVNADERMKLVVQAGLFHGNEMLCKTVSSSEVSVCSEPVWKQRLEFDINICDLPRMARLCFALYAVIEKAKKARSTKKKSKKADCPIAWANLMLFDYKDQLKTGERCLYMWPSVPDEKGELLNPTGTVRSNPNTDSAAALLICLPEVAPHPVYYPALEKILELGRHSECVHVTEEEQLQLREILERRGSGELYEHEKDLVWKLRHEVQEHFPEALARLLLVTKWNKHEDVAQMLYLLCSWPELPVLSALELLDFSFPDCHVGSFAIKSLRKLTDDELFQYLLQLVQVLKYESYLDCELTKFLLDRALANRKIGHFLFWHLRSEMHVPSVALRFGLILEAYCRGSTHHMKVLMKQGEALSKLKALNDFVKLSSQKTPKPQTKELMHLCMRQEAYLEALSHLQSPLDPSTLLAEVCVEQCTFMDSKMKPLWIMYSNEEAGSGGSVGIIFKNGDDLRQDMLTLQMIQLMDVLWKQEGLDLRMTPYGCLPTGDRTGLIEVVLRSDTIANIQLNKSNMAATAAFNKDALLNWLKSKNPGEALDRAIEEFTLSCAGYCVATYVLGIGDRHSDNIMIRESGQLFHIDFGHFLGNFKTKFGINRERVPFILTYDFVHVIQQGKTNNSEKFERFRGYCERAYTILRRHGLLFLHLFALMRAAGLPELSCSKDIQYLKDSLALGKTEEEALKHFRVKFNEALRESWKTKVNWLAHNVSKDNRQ

Cytochrome P450 = experiment: Inhibition of Cytochrome P450 (unknown origin); assay type: ADME, protein assay; conditions: human
[2] = Stability in rat liver microsomes assessed as parent compound remaining at 0.5 uM after 10 mins by high throughput assay; assay type: ADME, Microsome; conditions: read-out: Stability
[3] = Stability in mouse liver microsomes assessed as parent compound remaining at 0.5 uM after 10 mins by high throughput assay; assay type: ADME, Microsome; conditions: read-out: Stability
[4] = molecular target: T1, Phosphatidylinositol 4,5-bisphosphate 3-kinase catalytic subunit delta isoform; experiment: Inhibition of PI3Kdelta in BCR-stimulated human B cells assessed as suppression of CD86 expression after 18 hrs by FACS analysis
B cell = experiment: Antiproliferative activity against human B cells by thymidine incorporation assay; assay type: functional, cell-based
[5] = AUC in mouse at 30 mg/kg, po; assay type: ADME, organism-based; conditions: in vivo
[6] = Half life in mouse; assay type: ADME, organism-based; conditions: in vivo
[7] = Oral bioavailability in mouse; assay type: ADME, organism-based; conditions: in vivo
Mus musculus [8] = experiment: Antiarthritic activity in DBA/1 mouse model of collagen-induced arthritis assessed as reduction in anti-collagen IgG titres at 100 mg/kg, po pretreated for 2 hrs followed by first collagen injection measured after second collagen injection on day 21 by ELISA relative to control; assay type: functional; design: scale not given: the % may be the effect or the level left
[9] = Volume of distribution in mouse; assay type: ADME, organism-based; conditions: in vivo
Mus musculus [10] = experiment: Antiarthritic activity in DBA/1 mouse model of collagen-induced arthritis assessed as reduction in clinical arthritic scores at 100 mg/kg, po pretreated for 2 hrs followed by first collagen injection measured after second collagen injection on day 21 relative to control; assay type: functional; design: scale not given: the % may be the effect or the level left
[11] = Clearance in mouse; assay type: ADME, organism-based; conditions: in vivo
[12] = Cmax in mouse at 30 mg/kg, po; assay type: ADME, organism-based; design: dose 30 mg/kg, route oral; conditions: in vivo
Mus musculus [13] = experiment: Antiarthritic activity in DBA/1 mouse model of collagen-induced arthritis assessed as reduction in clinical arthritic scores at 1 mg/kg/day, po pretreated for 2 hrs followed by first collagen injection measured after second collagen injection on day 21 relative to control; assay type: functional; design: scale not given: the % may be the effect or the level left
Mus musculus [14] = experiment: Antiarthritic activity in DBA/1 mouse model of collagen-induced arthritis assessed as reduction in anti-collagen IgG titres at 1 mg/kg/day, po pretreated for 2 hrs followed by first collagen injection measured after second collagen injection on day 21 by ELISA relative to control; assay type: functional; design: scale not given: the % may be the effect or the level left

SMILES	IC50 [1]	remaining at 10 min, 0.5 µM [3]	IC50 (B cell)	also measured
NCc1ccc(-c2cc(-c3ccnn3C3CCCCC3)c3c(N)ncnn23)cc1	26 nM			
Nc1ncnn2c(-c3cccnc3)cc(-c3ccnn3C3CCCC3)c12	29 nM			
Nc1ncnn2c(-c3ccncc3)cc(-c3ccnn3C3CCCCC3)c12	22 nM	16%		remaining at 10 min, 0.5 µM [2]: 46%
CN1CCC(n2nccc2-c2cc(-c3cccnc3)n3ncnc(N)c23)CC1	150 nM			
Nc1ncnn2c(-c3cccnc3)cc(-c3ccnn3C3CCCCCC3)c12	231 nM			
Nc1ncnn2c(-c3cccc(CO)c3)cc(-c3ccnn3C3CCCCC3)c12	27 nM			
Nc1ncnn2c(-c3cccnc3)cc(-c3ccnn3C3CCS(=O)(=O)CC3)c12	163 nM			
Nc1ncnn2c(-c3ccc(CO)cc3)cc(-c3ccnn3C3CCCCC3)c12	31 nM			
CS(=O)(=O)NCc1cccc(-c2cc(-c3ccnn3C3CCOCC3)c3c(N)ncnn23)c1			99 nM	
CN(Cc1cnc2nc(N)nc(N)c2n1)c1ccc(C(=O)N[C@@H](CCC(=O)O)C(=O)O)cc1 [METHOTREXATE]				Activity (Mus musculus [13]): 83%; Activity (Mus musculus [14]): 63%
Nc1ncnn2c(-c3cccc(C4(N5CCOCC5)COC4)c3)cc(-c3ccnn3C3CCOCC3)c12		6%	1 nM	
Nc1ncnn2ccc(-c3ccnn3C3CCCCC3)c12	405 nM			
Nc1ncnn2c(-c3cccc(CN4CCCC4=O)c3)cc(-c3ccnn3C3CCOCC3)c12		19%	35 nM	
CN(C)C1(c2cccc(-c3cc(-c4ccnn4C4CCOCC4)c4c(N)ncnn34)c2)COC1		70%	9 nM	
CC1(C)OC(=O)NC1c1cccc(-c2cc(-c3ccnn3C3CCOCC3)c3c(N)ncnn23)c1 (centres undefined)		45%	31 nM	
Nc1ncnn2c(-c3cccc(S(N)(=O)=O)c3)cc(-c3ccnn3C3CCCCC3)c12	14 nM			

Further lines, with some results ahead:

IC50 [1]	remaining at 10 min, 0.5 µM [3]	SMILES	IC50 (B cell)	also measured
22 nM		Nc1ncnn2c(-c3cccnc3)cc(-c3ccnn3C3CCCCC3)c12		inhibition (INH) (Cytochrome P450): Not Active
3 nM		CN(C)c1cccc(-c2cc(-c3ccnn3C3CCCCC3)c3c(N)ncnn23)c1		IC50 [4]: 16 nM
	65%	CN1C[C@H](O)C[C@@H]1c1cccc(-c2cc(-c3ccnn3C3CCOCC3)c3c(N)ncnn23)c1	87 nM	
252 nM		CC(C)Cn1nccc1-c1cc(-c2cccnc2)n2ncnc(N)c12		
2 nM		Nc1ncnn2c(-c3cccc(C(=O)N4CCCC4)c3)cc(-c3ccnn3C3CCCCC3)c12		IC50 [4]: 36 nM
	58%	CN(C)C(C)(C)c1cccc(-c2cc(-c3ccnn3C3CCOCC3)c3c(N)ncnn23)c1	6 nM	AUC [5]: 6.23 µM·h; half-life [6]: 1 h; bioavailability [7]: 46%; Activity (Mus musculus [8]): 80%; Vd [9]: 6.2 L/kg; Activity (Mus musculus [10]): 100%; clearance [11]: 82.1 mL/min/kg; Cmax [12]: 2890 nM
1 nM	4%	CC(C)C(=O)N1C[C@H](O)C[C@H]1c1cccc(-c2cc(-c3ccnn3C3CCOCC3)c3c(N)ncnn23)c1	8 nM	IC50 [4]: 110 nM
42 nM		Nc1ncnn2c(-c3cccnc3)cc(-c3ccnn3C3CCOCC3)c12		
	0.09%	CC(C)[C@H]1COC(=O)N1Cc1cccc(-c2cc(-c3ccnn3C3CCOCC3)c3c(N)ncnn23)c1		
11 nM		Cn1cc(-c2cc(-c3ccnn3C3CCCCC3)c3c(N)ncnn23)cn1		
576 nM		Nc1ncnn2c(-c3ccccc3)cc(-c3ccnn3C3CCCCC3)c12		
4 nM	100%	CN1CCN(Cc2cccc(-c3cc(-c4ccnn4C4CCOCC4)c4c(N)ncnn34)c2)CC1	28 nM	IC50 [4]: 721 nM
